Tests used:
[1] = biological target: T1, muscarinic M2R (Homo sapiens, UniProt P08172); experiment: Intracellular Ca2+ measurement, functional response to ACh, M2R in CHO cells; type: cell-based
T1 construct: host or cells: CHO cells (whole cells, Fura-2)
T1 sequence (P08172 1-466): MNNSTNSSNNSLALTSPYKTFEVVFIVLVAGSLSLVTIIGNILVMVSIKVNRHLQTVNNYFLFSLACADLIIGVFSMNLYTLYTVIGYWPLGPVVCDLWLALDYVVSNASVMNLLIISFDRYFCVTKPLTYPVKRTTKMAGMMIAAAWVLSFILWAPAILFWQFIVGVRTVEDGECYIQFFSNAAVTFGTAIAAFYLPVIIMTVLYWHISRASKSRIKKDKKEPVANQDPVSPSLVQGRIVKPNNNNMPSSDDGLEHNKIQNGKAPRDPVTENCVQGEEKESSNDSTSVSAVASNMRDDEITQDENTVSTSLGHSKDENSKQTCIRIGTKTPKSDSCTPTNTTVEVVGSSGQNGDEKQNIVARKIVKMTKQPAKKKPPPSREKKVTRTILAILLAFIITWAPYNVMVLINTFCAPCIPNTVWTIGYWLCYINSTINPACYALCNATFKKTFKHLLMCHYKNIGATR
Procedure: (§1) Linear Schild plot indicates the competitive interaction (slope = 1) of the tested compound (Supporting Information, Figure S55).
(§2) Intracellular Ca^2+ level was taken as a functional response to ACh. Black 96-well plates were seeded with 12,000 CHO cells per well. After two days of cultivation in DMEM at 37 °C under a humidified atmosphere containing 5% CO2, cells were washed with Krebs-HEPES buffer (KHB) (composition: (mM) NaCl (138), KCl (4), CaCl2 (1.3), MgCl2 (1), NaH2PO4 (1.2), HEPES (20), glucose (10), pH adjusted to 7.4) KHB was loaded with 5 μM Fura-2 (Sigma-Aldrich) for 1 h. The cells were washed with fresh KHB and preincubated with tested compounds for 1 h. Then plates were placed in a Cytation 3 reader. The first basal level (fluorescence dual excitation at 340 and 380 nm, emission at 510 nm) was measured. Following this, ACh was added to the desired concentration (ranging from 10 pM to 100 μM) by instrument injectors, and fluorescence was measured immediately. Intracellular Ca^2+ level was calculated as a ratio of 340 to 380 nm excitation fluorescence. […]
(§3) The intracellular level of calcium at various concentrations of ACh was measured. […] From a series of EC50 values of apparent inhibition constant KB was calculated by fitting eq 5 to dose ratio (DR) induced by tested compound at a given concentration: [drawing 5] […]

[2] = biological target: T2, M3R (Homo sapiens, UniProt P20309); experiment: Intracellular Ca2+ measurement, functional response to ACh, M3R in CHO cells; type: cell-based; settings: antagonism of ACh-induced Ca2+ response, read-out: pKB M3R (converted)
T2 construct: host or cells: CHO cells (whole cells, Fura-2)
T2 sequence (P20309 whole entry): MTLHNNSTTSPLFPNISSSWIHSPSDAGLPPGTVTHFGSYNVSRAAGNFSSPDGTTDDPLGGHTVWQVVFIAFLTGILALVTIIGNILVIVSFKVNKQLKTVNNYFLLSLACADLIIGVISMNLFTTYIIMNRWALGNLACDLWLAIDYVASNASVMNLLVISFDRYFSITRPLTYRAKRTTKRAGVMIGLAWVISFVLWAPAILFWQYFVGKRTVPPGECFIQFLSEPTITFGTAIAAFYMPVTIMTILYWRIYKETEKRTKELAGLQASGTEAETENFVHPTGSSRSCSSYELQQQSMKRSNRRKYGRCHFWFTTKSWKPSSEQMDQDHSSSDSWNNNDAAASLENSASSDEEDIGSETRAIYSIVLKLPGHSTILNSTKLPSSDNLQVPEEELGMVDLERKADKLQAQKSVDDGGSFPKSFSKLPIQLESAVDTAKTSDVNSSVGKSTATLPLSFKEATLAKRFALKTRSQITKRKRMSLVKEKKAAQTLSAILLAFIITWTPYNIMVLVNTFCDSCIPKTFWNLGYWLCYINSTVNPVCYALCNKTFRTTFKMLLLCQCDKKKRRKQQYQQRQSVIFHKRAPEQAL
Procedure: as §1, §2, §3

[3] = test system: H3R; experiment: H3R agonism check with thioperamide on electrically stimulated guinea pig ileum; settings: thioperamide as H3R antagonist
Procedure: A standard ex vivo assay based on the relaxant response of histamine H3R agonists to electrically driven guinea pig ileum was used to test the influence of ADS compounds on the reduction of electrically evoked tissue contraction. […] The −log EC50 value for RAMH and ADS compounds were evaluated. […] Following this, we decided to evaluate the ADS series as potential M2R/M3R ligands on the isolated guinea pig ileum.
Male guinea pigs, weighing 300–400 g, were euthanized by a blow to the neck. A 20–30 cm length of the distal ileum, apart from the terminal 5 cm, was rapidly removed and placed in phosphate buffer at room temperature (pH 7.4) containing (mM) NaCl (136.9), KCl (2.6), KH2PO4 (1.47), Na2HPO4 (9.58), and indomethacin (1 × 10^–6 mol/L)). The intraluminal content was rinsed, and the isolated intestine was cut into 1.5–2 cm segments. The preparations were mounted between two platinum electrodes isotonically in a 20 mL organ bath filled with Krebs buffer: composition (mM) NaCl (118), KCl (5.6), MgSO4 (1.18), CaCl2 (2.5), NaH2PO4·H2O (1.28), NaHCO3 (25), glucose (5.55), and indomethacin (3 × 10^–7 mol/L). […] Cumulative concentration–response curve was determined to RAMH or tested agonist (10 nM to 10 mM) at increasing concentrations spaced by 3- or 3.3-fold. The agonist potency is expressed as pD2 value (−log EC50) ± sem.

N=C(N)N(CCCCN1CCN(C[C@H]2CC[C@@H](COc3ccccc3)CC2)CC1)Cc1ccccc1 [ADS10227, 1-{4-{4-{[4-(phenoxymethyl)cyclohexyl]methyl}piperazin-1-yl}but-1-yl}-1-(benzyl)guanidine]
Kb ([1]; antagonism of ACh-induced Ca2+ response, CHO cells, read-out: pKB M2R (converted)): 0.00676 µM | Schild plot slope ([1]; linear Schild plot, competitive interaction, M2R and M3R Ca2+ assays): 1 | Kb [2]: 0.0372 µM | shift of the concentration–response curve with or without thioperamide (H3R agonism) [3]: no shifts
